Measurements: patent US20120088896A1, “DRUG FOR INHIBITING LECTIN-LIKE OXIDIZED LDL RECEPTOR AND DRUG FOR PREVENTING ARTERIOSCLEROSIS” (NATIONAL CEREBRAL AND CARDIOVASCULAR CENTER, priority 2009, published 2012)

What was measured:
[1] = target: T1, TetOn hLOX-1 CHO cells (human LOX-1) (Homo sapiens, UniProt P78380); assay: Binding of DiI-labeled oxidized LDL to LOX-1 expressing cells under low temperature conditions; format: cell-based; conditions: trimeric procyanidins of different structure at 0.1 μg/ml, on ice; Example 5
T1 construct: expressed in transfected cells
Description: It is said that caveola or clathrin is also involved in the incorporation of oxidized LDL into the cells, in addition to that mediated by LOX-1.
First, 100 μl of the suspension of LOX-1 expressing cells adjusted with the above culture medium so as to achieve a density of 1×10^5 cells/ml was dispensed into each well of a 96-well plate (manufactured by Costar, Product Number: 3603). In addition, in order to induce the expression of LOX-1, doxycycline (manufactured by Calbiochem) was added so that the final concentration thereof was 1 μg/ml. As a control, a well where no doxycycline was added so that no expression was induced was also prepared. This 96-well plate was incubated at 37° C. for 24 hours in a CO2 incubator, and each well was then washed with the aforementioned FBS(−) medium cooled to 4° C. […]
This 96-well plate was observed using the In Cell Analyzer 1000 system (manufactured by GE healthcare) to measure the DiI fluorescence intensity and the number of nuclei per each well, and the fluorescence intensity per single cell was determined in the same manner as in Example 2.
Further, the oxidized LDL binding rate (%) was calculated by the following formula (3). […]
Subsequently, the effects of these four types of trimeric procyanidins on the inhibition of the bonding between LOX-1 and oxidized LDL were evaluated. […]

ex-hLOX-1 protein = target: T2, ex-hLOX-1 protein (Homo sapiens, UniProt P78380); assay: BIACORE measurement of direct bonding of procyanidins and LOX-1; conditions: monomers to heptamers at 20 μM; peak 3 trimers at 1.25-20 μM; 120 s binding, 120 s dissociation; read-out: Dissociation Constant
T2 construct: IgK secretion signal (printed 'IgK selection signal') (N, cleaved yes); His tag (from vector pSecTag/FRT/V5His); made in house; host or cells: 293F cells (FreeStyle 293 Expression System)
Description: The direct bonding of procyanidins and LOX-1 was evaluated using the BIACORE system.
LOX-1 was fixed on a sensor chip, and the BIACORE measurement was carried out using the procyanidins as the liquid phase. The BIACORE measurements and analyses were conducted using the BIACORE 2000 (GE Healthcare). In addition, the sensor chip CM5 was used as a sensor chip, and the ex-hLOX-1 protein was immobilized on the sensor chip by employing the amine coupling method. A HEPES solution (consisted of 10 mM HEPES, 150 mM NaCl and 2 mM CaCl2) was degassed and used as the running buffer.
Among the procyanidins made to flow through the chip, monomeric to heptameric procyanidins were each adjusted to 20 μM using the running buffer and used for the measurement.
In addition, when the procyanidins were reacted in the sensor chip, the flow rate was set to 20 μl/min, and the dissociation constant was measured with 120 seconds of binding and 120 seconds of dissociation.

| SMILES | oxidized LDL binding rate (LOX-1 inhibiting activity) [1] | Kd (ex-hLOX-1 protein) [µM] |
| --- | --- | --- |
| Oc1cc(O)c2c(c1)O[C@H](c1ccc(O)c(O)c1)[C@H](O)[C@H]2c1c(O)cc2c(c1O)[C@H](c1c(O)cc(O)c3c1O[C@H](c1ccc(O)c(O)c1)[C@@H](O)C3)[C@@H](O)[C@@H](c1ccc(O)c(O)c1)O2 (single isomer, unassigned; peak 2) [peak 2, epi (4β → 6) epi (4β → 8) cat] | exhibited stronger LOX-1 inhibiting activities than the trimeric procyanidins represented by peaks 1 and 4 |  |
| Oc1cc(O)c2c(c1)O[C@H](c1ccc(O)c(O)c1)[C@H](O)[C@H]2c1c(O)cc2c(c1O)C(c1c(O)cc(O)c3c1O[C@H](c1ccc(O)c(O)c1)[C@H](O)C3)[C@@H](O)[C@@H](c1ccc(O)c(O)c1)O2 (single isomer, unassigned; peak 3) [peak 3, epi (4β → 6) epi (4β → 8) epi] | exhibited stronger LOX-1 inhibiting activities than the trimeric procyanidins represented by peaks 1 and 4 | 3.8 |
